# Assay results as given in ChEMBL document CHEMBL4825757, “Optimization of 4,6-Disubstituted Pyrido[3,2-d]pyrimidines as Dual MNK/PIM Inhibitors to Inhibit Leukemia Cell Growth” (J Med Chem, 2021).
# Calls of active or inactive are those of the source. The calls are words filed in the database; no cut-off is given here.
# What was measured:
# [1] = biological target: Serine/threonine-protein kinase pim-3 (Homo sapiens, UniProt Q86V86); experiment: Inhibition of recombinant human Pim3 (2 to end residues) using RSRHSSYPAGT as substrate incubated for 40 mins in presence of [gamma33P]ATP by scintillation counting based radiometry assay
# [2] = system: MOLM-13; experiment: Induction of cell cycle arrest in human MOLM-13 cells assessed as G1 phase at 2 uM incubated for 12 hr by propidium iodide based flow cytometry analysis (Rvb= 51.29%); format: functional
# [3] = system: K562; experiment: Downregulation of cyclin-D1 levels in human K562 cells at 1 to 2 uM incubated for 24 hrs by western blot analysis; format: functional, cell-based; details: dose 1-2 µM
# [4] = system: K562; experiment: Downregulation of mcl-1 levels in human K562 cells at 1 to 2 uM incubated for 24 hrs by western blot analysis; format: functional, cell-based; details: dose 1-2 µM
# [5] = Tmax in Sprague Dawley rat at 10 mg/kg, po measured after 24 hrs; format: ADME, organism-based; details: in vivo
# [6] = AUC (0 to t) in Sprague Dawley rat at 10 mg/kg, po measured after 24 hrs; format: ADME, organism-based; set-up: route oral, dose 10 mg/kg, time 24 hrs; details: in vivo
# [7] = system: MOLM-13; experiment: Antiproliferative activity against human MOLM13 cells assessed as reduction of cell viability incubated for 72 hrs by trypan blue staining based cell counting analysis; format: functional
# [8] = system: MOLM-13; experiment: Antitumor activity against human MOLM-13 cells xenografted in NOD/SCID mouse assessed as decrease in cyclin-D1 levels at 10 mg/kg, ip daily for 2 weeks by western blot analysis; format: functional, organism-based
# [9] = system: MOLM-13; experiment: Antitumor activity against human MOLM-13 cells xenografted in NOD/SCID mouse assessed as tumor growth inhibition at 10 mg/kg, ip daily for 2 weeks; format: functional; details: MOLM-13, ip, 336 h, read-out: TGI
# [10] = system: MOLM-13; experiment: Antitumor activity against human MOLM-13 cells xenografted in NOD/SCID mouse assessed as decrease in eIF4E phosphorylation at 10 mg/kg, ip daily for 2 weeks by western blot analysis; format: functional, organism-based
# [11] = biological target: T1, Serine/threonine-protein kinase B-raf (Homo sapiens, UniProt P15056); experiment: Inhibition of recombinant human B-Raf (416 to end residues) using myelin as substrate incubated for 40 mins in presence of [gamma-33P]-ATP by radiometric scintillation counting analysis
# [12] = system: MOLM-13; experiment: Induction of apoptosis in human MOLM-13 cells assessed as late apoptotic cells at 2 uM incubated for 12 hrs by annexin-V and propidium iodide staining based flow cytometry analysis (reference value: 3.03%); format: functional
# [13] = biological target: MAP kinase-interacting serine/threonine-protein kinase 1 (Homo sapiens, UniProt Q9BUB5); experiment: Inhibition of wild type human full length MKN1 (M1 to L424) expressed in mammalian expression system at 1 uM by Kinomescan method relative to control
# [14] = system: MOLM-13; experiment: Induction of apoptosis in human MOLM-13 cells assessed as early apoptotic cells at 2 uM incubated for 12 hrs by annexin-V and propidium iodide staining based flow cytometry analysis (reference value: 5.40%); format: functional
# [15] = biological target: T1, Serine/threonine-protein kinase B-raf; experiment: Inhibition of wild-type human partial length BRAF (S429 to E741 residues) expressed in mammalian expression system at 1 uM by Kinomescan method relative to control
# [16] = system: MOLM-13; experiment: Antitumor activity against human MOLM-13 cells xenografted in NOD/SCID mouse assessed as tumor growth inhibition at 5 mg/kg, ip daily for 2 weeks; format: functional; details: MOLM-13, ip, 336 h, read-out: TGI
# [17] = system: MOLM-13; experiment: Downregulation of mcl-1 levels in human MOLM-13 cells at 1 to 2 uM incubated for 12 hrs by western blot analysis; format: functional, cell-based; details: dose 1-2 µM
# [18] = system: MOLM-13; experiment: Induction of cell cycle arrest in human MOLM-13 cells assessed as G1 phase at 1 uM incubated for 12 hr by propidium iodide based flow cytometry analysis (Rvb= 51.29%); format: functional
# [19] = system: MOLM-13; experiment: Induction of apoptosis in human MOLM-13 cells assessed as live cells at 1 uM incubated for 12 hrs by annexin-V and propidium iodide staining based flow cytometry analysis (reference value: 91.49%); format: functional
# [20] = system: MOLM-13; experiment: Antitumor activity against human MOLM-13 cells xenografted in NOD/SCID mouse assessed as decrease in 4EBP1 phosphorylation at 5 to 10 mg/kg, ip daily for 2 weeks by western blot analysis; format: functional, organism-based; details: dose 5-10 mg/kg
# [21] = Metabolic stability in human liver microsomes assessed as half life preincubated for 10 mins followed by NADPH addition and further incubated upto 60 mins by LC-MS/MS analysis; format: ADME, Microsome; details: time <=70 min
# [22] = system: MOLM-13; experiment: Induction of apoptosis in human MOLM-13 cells assessed as late apoptotic cells at 1 uM incubated for 12 hrs by annexin-V and propidium iodide staining based flow cytometry analysis (reference value: 3.03%); format: functional
# [23] = biological target: Serine/threonine-protein kinase pim-1 (Homo sapiens, UniProt P11309); experiment: Inhibition of wild-type human partial length PIM1 (A15 to K313 residues) expressed in bacterial expression system at 1 uM by Kinomescan method relative to control
# [24] = Half life in Sprague Dawley rat at 2 mg/kg, iv measured after 24 hrs; format: ADME, organism-based; details: in vivo
# [25] = biological target: Receptor tyrosine-protein kinase erbB-2 (Homo sapiens, UniProt P04626); experiment: Inhibition of ERBB2 (unknown origin) by mobility shift assay
# [26] = Toxicity in NOD/SCID mouse xenografted with human MOLM-13 cells assessed as abnormal changes in spleen at 5 to 10 mg/kg, ip daily for 2 weeks by hematoxylin-eosin staining based histological analysis; format: organism-based; details: in vivo, 336 h, dose 5-10 mg/kg
# [27] = system: K562; experiment: Downregulation of c-myc levels in human K562 cells at 1 to 2 uM incubated for 24 hrs by western blot analysis; format: functional, cell-based; details: dose 1-2 µM
# [28] = Toxicity in NOD/SCID mouse xenografted with human MOLM-13 cells assessed as abnormal changes in lung at 5 to 10 mg/kg, ip daily for 2 weeks by hematoxylin-eosin staining based histological analysis; format: organism-based; details: in vivo, 336 h, dose 5-10 mg/kg
# [29] = biological target: MAP kinase-interacting serine/threonine-protein kinase 1/2 (Homo sapiens) (UniProt Q9HBH9+Q9BUB5); experiment: Inhibition of MNK1/MNK2 in human K562 cells assessed as reduction in eIF4E phosphorylation at 1 to 2 uM incubated for 24 hrs by western blot analysis; format: cell-based; details: dose 1-2 µM
# [30] = Cmax in Sprague Dawley rat at 10 mg/kg, po measured after 24 hrs; format: ADME, organism-based; set-up: route oral, time 24 hrs, dose 10 mg/kg; details: in vivo
# [31] = Toxicity in NOD/SCID mouse xenografted with human MOLM-13 cells assessed as abnormal changes in heart at 5 to 10 mg/kg, ip daily for 2 weeks by hematoxylin-eosin staining based histological analysis; format: organism-based; details: in vivo, 336 h, dose 5-10 mg/kg
# [32] = biological target: MAP kinase-interacting serine/threonine-protein kinase 2 (Homo sapiens, UniProt Q9HBH9); experiment: Inhibition of wild type human partial length MKN2 (G63 to S388 residues) expressed in mammalian expression system at 1 uM by Kinomescan method relative to control
# [33] = biological target: Epidermal growth factor receptor (Homo sapiens, UniProt P00533, T790M); experiment: Inhibition of recombinant human EGFR T790M mutant (696 to end residues) using GGMEDIYFEFMGG as substrate after 40 mins in presence of [gamma-33ATP] by radiometric scintillation counting analysis
# [34] = Cmax in Sprague Dawley rat at 2 mg/kg, iv measured after 24 hrs; format: ADME, organism-based; set-up: route intravenous, time 24 hrs, dose 2 mg/kg; details: in vivo
# [35] = Half life in Sprague Dawley rat at 10 mg/kg, ip measured after 24 hrs; format: ADME, organism-based; details: in vivo
compound,measurement,setting,value
CC(C)Oc1cc(F)ccc1Nc1ncnc2ccc(-c3ccc(C(=O)N4CCNCC4)cc3)nc12,IC50,[1],774 nM
same,Activity,[2],44.38%
same,Activity,[3],Active
same,Activity,[4],Active
same,Tmax,[5],8 h
same,AUC(0-t) at 24 h,[6],2850 ng·h/mL
same,GI50,[7],1230 nM
same,Activity,[8],Active
same,inhibition in vivo at 10 mg/kg,[9],57.6%
same,Activity,[10],Active
same,IC50,[11],2220 nM
same,Activity,[12],8.2%
same,inhibition,[13],100%
same,Activity,[14],29.57%
same,inhibition,[15],87%
same,inhibition in vivo at 5 mg/kg,[16],41.2%
same,Activity,[17],Active
same,Activity,[18],61.13%
same,Activity,[19],90.09%
same,Activity,[20],Active
same,half-life,[21],3.4 h
same,Activity,[22],2.97%
same,inhibition,[23],96%
same,half-life,[24],6.71 h
same,IC50,[25],7490 nM
same,Activity,[26],Non-Toxic
same,Activity,[27],Active
same,Activity,[28],Non-Toxic
same,inhibition,[29],Dose-Dependent Effect
same,Cmax,[30],224 ng/mL
same,Activity,[31],Non-Toxic
same,inhibition,[32],100%
same,IC50,[33],> 10000 nM
same,Cmax,[34],652 ng/mL
same,half-life,[35],4.4 h
